Columns and labels:
[1] = tested on: contractile protein system; experiment: Relation between Ca concentration and contractile force in saponin-skinned papillary muscle fibers under acidosis (pH 6.6); format: cell-based, Wistar rats; conditions: for Hill n / Maximum Force / PCa50 / Resting Force: acidosis (pH6.6) + 1 μM MCC-135
Procedure: Diabetic cardiomyopathy model is prepared in a similar manner to that in Example 1. The rats 7 months after the administration of STZ were subjected to the experiments in a similar manner to that in Example 1. The rats were sacrificed and the hearts of the rats were isolated 7 months after the administration of STZ. The following experiment was conducted according to the method of Kitada et al. which is the same as that in the Example 1. Left ventricular papillary muscles were cut off from the isolated heart in an ice cooled Krebs-Henseleit solution, and contraction-relaxation function of the papillary muscles was measured by Magnus method. Some of the papillary muscles were applied to a functional analysis on a relation between various calcium ion (Ca) concentrations and contractile force by skinned fiber method with saponin treatment. Acidosis was induced by lowering the pH of the solution from 7.0 in normal to 6.6. A mode of change of relation between the various calcium ion (Ca) concentrations and the contractile forces in the presence or absence of MCC-135 was studied.

[2] = tested on: Ca leakage from sarcoplasmic reticulum; experiment: Ca leakage from sarcoplasmic reticulum in saponin-skinned papillary muscle fiber preparations (caffeine-induced tension as index); format: cell-based, Wistar rats; conditions: MCC-135 10^-7 M to 10^-5 M, skinned fiber preparation
Procedure: Diabetic cardiomyopathy was induced in 7-week old Wistar rats by an intravenous injection of 40 mg/kg of Streptozotocin via each tail (purchased from Sigma, hereinafter may be referred to as “STZ”) (J. Exp. Med., 1979, 149: 623-631). Since a severe cardiac dysfunction is observed 5 to 6 months after the administration of STZ (Malone, J. I., Schocken, D. D., Morrison, A. D., Gilbert-Barness, E., Diabetic cardiomyopathy and carnitine deficiency. J-Diabetes-Complications. 1999, 13(2): 86-90), the rats were subjected to the experiments 7 months after the administration of STZ. The rats were sacrificed and the hearts of the rats were isolated 7 months after the administration of STZ. The following experiment was conducted according to the method of Kitada et al. (J. Pharmacol. Exp. Ther. 1987, 243: 633-638). Skinned fiber preparations were prepared by saponin treatments of papillary muscles of the hearts isolated from the rats 7 months after the administration of STZ and the control rats. A medium for the preparations was changed from Ca (calcium ion) free buffer solution to a solution of pCa 6.7 to have sarcoplasmic reticulum uptake a certain amount of Ca in the presence of ATP. […]

With `Cc1ccc(N2CCNCC2)c(S(=O)(=O)O)c1.O` [MCC-135, 5-methyl-2-(1-piperazinyl)benzenesulfonic acid monohydrate] the “effect on the action of acidosis on cardiac muscle” value ([1]; diabetic cardiomyopathy) was “blocked the action of acidosis in the diabetic cardiomyopathy”, the “effect on the action of acidosis on cardiac muscle” value ([1]; normal hearts) was “had no effect on the action of acidosis on the normal hearts” and the Hill n ([1]; normal rat) was 3.17 ± 0.42. The “Maximum Force” value ([1]; normal rat) was 0.371 ± 0.027 mN/mm^2, the PCa50 ([1]; normal rat) was 5.43 ± 0.01 and the “Resting Force” value ([1]; normal rat) was 0 ± 0 n.s mN/mm^2. For the same compound, the Hill n ([1]; rat with cardiomyopathy) was 2.12 ± 0.20, the “Maximum Force” value ([1]; rat with cardiomyopathy) was 0.286 ± 0.020**, *** mN/mm^2 and the PCa50 ([1]; rat with cardiomyopathy) was 5.55 ± 0.07. For the same compound, the “Resting Force” value ([1]; rat with cardiomyopathy) was 0.000 ± 0.000**, *** mN/mm^2, the “effect on Ca leakage from sarcoplasmic reticulum” value ([2]; normal rats) was “had no effect” and the “effect on Ca leakage from sarcoplasmic reticulum” value ([2]; rats with diabetic cardiomyopathy (STZ, 7 months)) was “inhibited Ca leakage from the sarcoplasmic reticulum with diabetic cardiomyopathy in a concentration-dependant manner”.
